Source: patent publication US20240270809A1, “ORAL GLP RECEPTOR AGONISTS” (priority 2020, published 2024)
Positions of bridges follow the written chain, without caps; N, C: chain ends. Non-standard residues stand in square brackets, D forms with d. Residues, ends and D or L forms follow the SMILES beside them. *: point of attachment. Malonyl(2,2-Me2,histaminyl) = CC(C)(C(=O)NCCc1cnc[nH]1)C(=O)*; Ala(1H-tetrazol-5-yl) = N[C@@H](Cc1nnn[nH]1)C(=O)O; αMeL = CC(C)C[C@](C)(N)C(=O)O; Nle = CCCC[C@H](N)C(=O)O

Assays:
human GLP2 receptor = biological target: T1, human GLP2 receptor (Homo sapiens, UniProt O95838); experiment: cAMP accumulation assay, functional agonism of human GLP2 receptor; type: cell-based; details: HEK cells infected with human GLP2 receptor BacMam virus, HTRF cAMP; for Emax: HEK293, read-out: Human GLP-2R agonist cAMP Emax; for EC50: read-out: Human GLP-2R agonist cAMP pEC50 (converted)
T1 construct: expressed in transfected cells; host or cells: HEK cells, BacMam virus transduction
T1 sequence (O95838 1-553): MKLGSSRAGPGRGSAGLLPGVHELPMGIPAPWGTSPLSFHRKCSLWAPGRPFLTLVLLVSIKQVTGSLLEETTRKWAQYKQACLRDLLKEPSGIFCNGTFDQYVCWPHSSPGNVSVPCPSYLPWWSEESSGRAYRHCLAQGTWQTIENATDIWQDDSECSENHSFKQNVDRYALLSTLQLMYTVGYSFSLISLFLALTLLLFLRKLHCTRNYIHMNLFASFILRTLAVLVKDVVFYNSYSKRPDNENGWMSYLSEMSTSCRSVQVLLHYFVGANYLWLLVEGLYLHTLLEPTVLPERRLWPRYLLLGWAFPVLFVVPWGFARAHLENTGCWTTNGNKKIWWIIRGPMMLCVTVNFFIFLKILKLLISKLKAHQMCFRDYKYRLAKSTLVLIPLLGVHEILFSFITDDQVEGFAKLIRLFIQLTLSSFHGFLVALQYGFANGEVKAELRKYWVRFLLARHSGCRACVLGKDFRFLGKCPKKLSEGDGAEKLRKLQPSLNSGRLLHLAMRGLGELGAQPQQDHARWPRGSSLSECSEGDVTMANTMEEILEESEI
Procedure, shortened: (§1)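 Frozen HEK cells, previously BacMam-infected 24 h to express either receptor, are stimulated for 45 min at 37° C in IBMX-containing (0.5 mM) HBSS. The reaction is then terminated with HTRF reagents in lysis buffer.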

human GLP1 receptor = biological target: T2, human GLP1 receptor (Homo sapiens, UniProt P43220); experiment: cAMP accumulation assay, functional agonism of human GLP1 receptor; type: cell-based; details: HEK cells infected with human GLP1 receptor BacMam virus, HTRF cAMP; for Emax: HEK293, read-out: Human GLP-1R agonist cAMP Emax; for EC50: read-out: Human GLP-1R agonist cAMP pEC50 (converted)
T2 construct: expressed in transfected cells; host or cells: HEK cells, BacMam virus transduction
T2 sequence (P43220 24-463): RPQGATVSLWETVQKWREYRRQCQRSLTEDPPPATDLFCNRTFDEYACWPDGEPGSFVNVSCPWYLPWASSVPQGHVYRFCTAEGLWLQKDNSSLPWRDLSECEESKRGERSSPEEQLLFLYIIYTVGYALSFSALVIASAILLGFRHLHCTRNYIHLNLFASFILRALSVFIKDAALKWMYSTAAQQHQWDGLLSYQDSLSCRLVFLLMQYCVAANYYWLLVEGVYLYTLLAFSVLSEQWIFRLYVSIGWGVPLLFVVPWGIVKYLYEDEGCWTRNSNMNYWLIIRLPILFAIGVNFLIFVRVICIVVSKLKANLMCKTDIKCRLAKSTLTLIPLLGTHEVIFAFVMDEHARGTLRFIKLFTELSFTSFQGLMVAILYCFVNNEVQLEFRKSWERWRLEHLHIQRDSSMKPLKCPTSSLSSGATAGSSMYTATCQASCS
Procedure, shortened: as §1

mouse GLP2 receptor = biological target: T3, mouse GLP2 receptor (Mus musculus, UniProt Q5IXF8); experiment: cAMP accumulation assay, functional agonism of mouse GLP2 receptor; type: cell-based; details: HEK cells transiently transfected with mouse GLP2 receptor, HTRF cAMP; for Emax: HEK293, read-out: Mouse GLP-2R agonist cAMP Emax; for EC50: read-out: Mouse GLP-2R agonist cAMP pEC50 (converted)
T3 construct: expressed in transfected cells; host or cells: HEK cells, transient transfection with GeneJuice
T3 sequence (Q5IXF8 1-512): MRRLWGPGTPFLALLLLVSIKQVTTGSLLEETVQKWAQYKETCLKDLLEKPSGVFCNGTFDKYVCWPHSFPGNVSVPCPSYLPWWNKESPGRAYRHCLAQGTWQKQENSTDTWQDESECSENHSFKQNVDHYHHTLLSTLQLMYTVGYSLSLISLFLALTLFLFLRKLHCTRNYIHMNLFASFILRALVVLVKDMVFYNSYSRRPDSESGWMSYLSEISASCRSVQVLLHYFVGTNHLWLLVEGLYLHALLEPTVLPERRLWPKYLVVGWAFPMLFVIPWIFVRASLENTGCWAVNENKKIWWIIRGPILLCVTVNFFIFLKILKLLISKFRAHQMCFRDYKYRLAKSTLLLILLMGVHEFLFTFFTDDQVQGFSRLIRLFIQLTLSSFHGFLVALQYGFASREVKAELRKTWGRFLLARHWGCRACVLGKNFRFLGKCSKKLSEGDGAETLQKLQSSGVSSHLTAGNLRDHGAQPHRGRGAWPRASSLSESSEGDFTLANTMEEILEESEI
Procedure, shortened: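 Transiently transfected HEK cells (24 h, frozen, 8000/well) in HBSS with 0.5 mM IBMX exposed to compound concentration series for 45 min at 37 °C. cAMP measured by HTRF after lysis and 1 h at RT; pEC50 from four-parameter concentration-response fit.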

[1] = Stability of peptides in Fasted-State Simulated Intestinal Fluid (FaSSIF); type: in vitro ADME; details: FaSSIF with 10 mg/ml pancreatin, 37° C.; for remaining at 0.5 h: t=30 mins, pH 6.5, 10 mg/ml pancreatin
[2] = Stability of peptides in Fasted-State Simulated Gastric Fluid (FaSSGF); type: in vitro ADME; details: FaSSGF with 0.1 mg/ml pepsin; t=30 mins, 37° C., pH 1.6, 0.1 mg/ml pepsin
Experimental: Stability of peptides was tested in Fasted-State Simulated gastric Fluid (FaSSGF) prepared according to manufacturer's protocol (Biorelevant, art. no. FFF01). […] FaSSGF was pre-incubated for 15 min at 37° C. and spiked with test and reference item working solutions. Experiments were conducted in duplicate in a non-serial manner. The total incubation volume per replicate was 150 μl. […] All samples and calibration standards (prepared in FaSSGF) were precipitated by addition of 300 μl precipitant (ACN / 2% acetic acid / 0.2% HFBA, (precipitation regent, PR)) containing internal standards (ISTD) to 150 μl sample. After incubation for 1 h at room temperature all samples were centrifuged for 10 min at 2,200×g (room temperature).

[3] = Stability of peptides in rat intestinal fluid (ratIF); details: Sprague Dawley, undiluted rat small intestinal fluid (ratIF)

Emax (human GLP2 receptor) [%] | EC50 (human GLP2 receptor) [nM] | Emax (human GLP1 receptor) [%] | EC50 (human GLP1 receptor) [nM] | Emax (mouse GLP2 receptor) [%] | EC50 (mouse GLP2 receptor) [nM] | remaining at 0.5 h [1] [%] | remaining at 0.5 h [2] [%] | remaining at 0.5 h [3] [%] | remaining at 0.25 h ([1]; FaSSIF pH 6.5 with 10 mg/ml pancreatin, t = 15 mins) [%] | remaining at 0.25 h [3] [%] | Compound
105 | 0.0126 | 88.8 | 0.501 | 99 | 3.16 | 61.3 | 100 | 33.4 |  |  | CCCC[C@@H]1NC(=O)[C@H](CCC(=O)O)NC(=O)[C@@H](NC(=O)[C@H](CO)NC(=O)[C@H](Cc2ccccc2)NC(=O)[C@H](CO)NC(=O)[C@@H](C)NC(=O)[C@H](Cc2nn[nH]n2)NC(=O)C(C)(C)C(=O)NCCc2c[nH]cn2)CCCCNC(=O)C[C@@H](C(=O)N[C@H](C(=O)N[C@@H](CC(C)C)C(=O)N[C@@H](CC(=O)O)C(=O)N[C@H]2CCC(=O)NCCCC[C@@H](C(=O)N[C@@H](CC(=O)O)C(=O)N[C@@H](Cc3ccccc3)C(=O)N[C@H](C(=O)N[C@H]3CCCCNC(=O)C[C@@H](C(=O)N[C@H](C(=O)N[C@H]4CCC(=O)NCCCC[C@@H](C(N)=O)NC(=O)[C@H]([C@@H](C)O)NC(=O)[C@H]([C@@H](C)CC)NC4=O)[C@@H](C)O)NC(=O)[C@H]([C@@H](C)CC)NC(=O)[C@H](CC(C)C)NC(=O)[C@H](Cc4c[nH]c5ccccc45)NC3=O)[C@@H](C)CC)NC(=O)[C@H](C)NC(=O)[C@H](C)NC(=O)[C@H](CCCCN)NC2=O)[C@@H](C)CC)NC(=O)[C@@H](Cc2ccccc2)NC1=O [Example 38] ({Malonyl(2,2-Me2,histaminyl)}-[Ala(1H-tetrazol-5-yl)][dA]SFSKE[Nle][dF]DILDEKAAKDFIKWLIDTEITK-NH2; lactam 6-10, 14-18, 22-26, 28-31 (inferred); C-terminus assumed)
101 | 0.00794 | 98.7 | 0.0158 | 103 | 0.0631 | 80.2 | 100 | 100 |  |  | CCCC[C@H](NC(=O)[C@H](CCC(=O)O)NC(=O)[C@H](CC(=O)O)NC(=O)[C@H](CO)NC(=O)[C@](C)(Cc1ccccc1F)NC(=O)[C@H](CO)NC(=O)CNC(=O)[C@H](CC(=O)O)NC(=O)C(C)(C)NC(=O)[C@@H](N)Cc1c[nH]cn1)C(=O)N[C@H](Cc1ccccc1)C(=O)N[C@H]1CCC(=O)NCCCC[C@@H](C(=O)N[C@H]2CCC(=O)NCCCC[C@@H](C(=O)N[C@@H](CC(=O)O)C(=O)N[C@@H](Cc3ccccc3)C(=O)N[C@H](C(=O)N[C@H]3CCC(=O)NCCCC[C@@H](C(=O)N[C@H]4CCCCNC(=O)CC[C@@H](C(N)=O)NC(=O)[C@H]([C@@H](C)O)NC(=O)[C@H]([C@@H](C)CC)NC(=O)[C@H](CCCCN)NC4=O)NC(=O)[C@H]([C@@H](C)CC)NC(=O)[C@H](CC(C)C)NC(=O)[C@H](Cc4c[nH]c5ccccc45)NC3=O)[C@@H](C)CC)NC(=O)[C@H](C)NC(=O)[C@H](C)NC2=O)NC(=O)[C@H](CC(=O)O)NC(=O)[C@H](CC(C)C)NC(=O)[C@H]([C@@H](C)CC)NC1=O [Example 48]
 |  |  |  |  |  | 1.7 | 9.2 | 1.3 | 1.2 | 5.7 | CC[C@H](C)[C@H](NC(=O)[C@H](Cc1ccccc1)NC(=O)[C@H](CC(=O)O)NC(=O)[C@H](CCCNC(=N)N)NC(=O)[C@H](C)NC(=O)[C@H](C)NC(=O)[C@H](CC(C)C)NC(=O)[C@H](CC(N)=O)NC(=O)[C@H](CC(=O)O)NC(=O)[C@H](CC(C)C)NC(=O)[C@@H](NC(=O)[C@@H](NC(=O)[C@H](CC(N)=O)NC(=O)[C@H](CCSC)NC(=O)[C@H](CCC(=O)O)NC(=O)[C@H](CC(=O)O)NC(=O)[C@H](CO)NC(=O)[C@H](Cc1ccccc1)NC(=O)[C@H](CO)NC(=O)CNC(=O)[C@H](CC(=O)O)NC(=O)CNC(=O)[C@@H](N)Cc1c[nH]cn1)[C@@H](C)O)[C@@H](C)CC)C(=O)N[C@@H](CC(N)=O)C(=O)N[C@@H](Cc1c[nH]c2ccccc12)C(=O)N[C@@H](CC(C)C)C(=O)N[C@H](C(=O)N[C@@H](CCC(N)=O)C(=O)N[C@H](C(=O)N[C@@H](CCCCN)C(=O)N[C@H](C(=O)N[C@H](C(=O)N[C@@H](CC(=O)O)C(=O)O)[C@@H](C)O)[C@@H](C)CC)[C@@H](C)O)[C@@H](C)CC [Teduglutide, reference compound]

Further lines, the compound ahead of its results:

Compound | Emax (human GLP2 receptor) [%] | EC50 (human GLP2 receptor) [nM] | Emax (human GLP1 receptor) [%] | EC50 (human GLP1 receptor) [nM] | Emax (mouse GLP2 receptor) [%] | EC50 (mouse GLP2 receptor) [nM] | remaining at 0.5 h [1] [%] | remaining at 0.5 h [2] [%] | remaining at 0.5 h [3] [%] | remaining at 0.25 h ([1]; FaSSIF pH 6.5 with 10 mg/ml pancreatin, t = 15 mins) [%] | remaining at 0.25 h [3] [%]
CCCC[C@@H]1NC(=O)[C@H](CCC(=O)O)NC(=O)[C@@H](NC(=O)[C@H](CO)NC(=O)[C@H](Cc2ccccc2)NC(=O)[C@H](CO)NC(=O)[C@@H](C)NC(=O)[C@H](Cc2nn[nH]n2)NC(=O)C(C)(C)C(=O)NCCc2c[nH]cn2)CCCCNC(=O)C[C@@H](C(=O)N[C@H](C(=O)N[C@@H](CC(C)C)C(=O)N[C@@H](CC(=O)O)C(=O)N[C@H]2CCC(=O)NCCCC[C@@H](C(=O)N[C@@H](CC(=O)O)C(=O)N[C@@H](Cc3ccccc3)C(=O)N[C@H](C(=O)N[C@H]3CCCCNC(=O)C[C@@H](C(=O)N[C@H]4CCC(=O)NCCCC[C@@H](C(N)=O)NC(=O)[C@H]([C@@H](C)O)NC(=O)[C@H]([C@@H](C)CC)NC(=O)[C@H](CCCCN)NC4=O)NC(=O)[C@H]([C@@H](C)CC)NC(=O)[C@H](CC(C)C)NC(=O)[C@H](Cc4c[nH]c5ccccc45)NC3=O)[C@@H](C)CC)NC(=O)[C@H](C)NC(=O)[C@H](C)NC(=O)[C@H](CCCCN)NC2=O)[C@@H](C)CC)NC(=O)[C@@H](Cc2ccccc2)NC1=O [Example 40] ({Malonyl(2,2-Me2,histaminyl)}-[Ala(1H-tetrazol-5-yl)][dA]SFSKE[Nle][dF]DILDEKAAKDFIKWLIDEKITK-NH2; lactam 6-10, 14-18, 22-26, 27-31 (inferred); C-terminus assumed) | 105 | 0.00631 | 89.9 | 0.501 | 99.6 | 1.26 | 68.7 | 84.9 | 14.7 |  | 
CCCC[C@H](NC(=O)[C@H](CCC(=O)O)NC(=O)[C@@H]1CC(=O)NCCCC[C@H](NC(=O)[C@H](Cc2nn[nH]n2)NC(=O)C(C)(C)C(=O)NCCc2c[nH]cn2)C(=O)N[C@@H](CO)C(=O)N[C@@H](Cc2ccccc2)C(=O)N[C@@H](CO)C(=O)N1)C(=O)N[C@H](Cc1ccccc1)C(=O)N[C@H](C(=O)N[C@@](C)(CC(C)C)C(=O)N[C@@H](CC(C)C)C(=O)N[C@@H](CC(=O)O)C(=O)N[C@H]1CCC(=O)NCCCC[C@@H](C(=O)N[C@@H](CC(=O)O)C(=O)N[C@@H](Cc2ccccc2)C(=O)N[C@H](C(=O)N[C@H]2CCC(=O)NCCCC[C@@H](C(=O)N[C@H]3CCC(=O)NCCCC[C@@H](C(N)=O)NC(=O)[C@H]([C@@H](C)O)NC(=O)[C@H]([C@@H](C)CC)NC(=O)[C@H](CCCCN)NC3=O)NC(=O)[C@H]([C@@H](C)CC)NC(=O)[C@H](CC(C)C)NC(=O)[C@H](Cc3c[nH]c4ccccc34)NC2=O)[C@@H](C)CC)NC(=O)[C@H](C)NC(=O)[C@H](C)NC(=O)[C@H](CCCCN)NC1=O)[C@@H](C)O [Example 45] ({Malonyl(2,2-Me2,histaminyl)}-[Ala(1H-tetrazol-5-yl)]KSFSDE[Nle][dF]T[αMeL]LDEKAAKDFIEWLIKEKITK-NH2; lactam 2-6, 14-18, 22-26, 27-31 (inferred); C-terminus assumed) | 104 | 0.0501 | 96.5 | 0.2 |  |  | 95.3 | 100 | 62.4 |  | 
